Experimental data taken from patent US20240285653A1, “COMPOSITIONS AND METHODS FOR TREATMENT AND PREVENTION OF DISEASES UTILIZING TIRILAZAD SALTS” (priority 2022, published 2024).
Read-outs that look alike come from different tables or passages of the source.

Test system: explant tissue from the dermoepidermal junction of the hoof
Type: cell-based
Protocol: An in vitro study was conducted to analyze the protective effects of tirilazad mesylate on cellular degeneration as a result of Bothrops alternatus snake venom as a model for laminitis. Explant tissue samples were obtained from the dermoepidermal junction of the hoof of the right forelimb under nervous system block without the need for euthanasia.
Under sterile conditions, laminar cuts (mini-explants) were made of each explant and the tissue washed with physiological solution. The mini-explants were pre-incubated for 5 hours with tirilazad and then for 24 hours with Bothrops venom. Culture medium was as follows: Dulbecco's […] (DMEM, GIBCO-Invitrogen) with 10% heat-inactivated fetal bovine serum (FBS, GIBCO-Invitrogen), L-Glutamine (29.2 mg/mL), Penicillin (10,000 units/mL), and Streptomycin (10,000 μg/mL, GIBCO-Invitrogen) as antibiotics.
Histopathology: Tissues were processed with classical histological techniques, e.g., cutting by microtome (Minot) and stained with hematoxylin-eosin (H-E) and Periodic Acid Schiff (PAS) stains.

[1] = Tirilazad 1 μM (5 hours pre-incubation) + venom 75 μg/ml (24 hours), listed as tirilazad
[2] = Tirilazad 1 μM alone, no venom, listed as tirilazad
[3] = Tirilazad 3 μM (5 hours pre-incubation) + venom 75 μg/ml (24 hours)
[4] = Tirilazad 3 μM alone, no venom, listed as tirilazad
[5] = Tirilazad 10 μM (5 hours pre-incubation) + venom 75 μg/ml (24 hours), listed as tirilazad
[6] = Tirilazad 10 μM alone, no venom
[7] = Tirilazad 10 μM alone, no venom, listed as tirilazad
[8] = Tirilazad 20 μM (5 hours pre-incubation) + venom 75 μg/ml (24 hours)
[9] = Tirilazad 20 μM alone, no venom

C[C@@H]1C[C@H]2[C@@H]3CCC4=CC(=O)C=C[C@]4(C)C3=CC[C@]2(C)[C@H]1C(=O)CN1CCN(c2cc(N3CCCC3)nc(N3CCCC3)n2)CC1 [Tirilazad, 16α-methyl-21-[4-[2,6-bis(1-pyrrolidinyl)-4-pyrimidinyl]-1-piperazinyl]pregna-1,4,9(11)-triene-3,20-dione]
Separation of Basement Membrane (Tirilazad 1 μM (5 hours pre-incubation) + venom 75 μg/ml (24 hours)): No
Cell Nuclei [1]: intense presence of altered epidermal cells
Pyknosis or Karyopyknosis [1]: nuclear pyknosis
Separation of Basement Membrane [1]: did not show separation of the basement membrane
Pyknosis or Karyopyknosis (Tirilazad 1 μM alone, no venom): No
Separation of Basement Membrane (Tirilazad 1 μM alone, no venom): No
Cell Nuclei [2]: epidermal cells were normal and showed preserved cytoplasmic and nuclear structure
Separation of Basement Membrane [2]: did not show separation of the basement membrane
Cell Nuclei [3]: intense presence of altered epidermal cells
Pyknosis or Karyopyknosis [3]: nuclear pyknosis predominating
Separation of Basement Membrane [3]: slight separation of the basement membrane
Separation of Basement Membrane (Tirilazad 3 μM alone, no venom): No
Cell Nuclei [4]: slight epidermal cytoplasmic and nuclear alteration
Separation of Basement Membrane [4]: did not show separation of the basement membrane
Separation of Basement Membrane (Tirilazad 10 μM (5 hours pre-incubation) + venom 75 μg/ml (24 hours)): No
Cell Nuclei [5]: Moderate presence of altered epidermal cells
Pyknosis or Karyopyknosis [5]: moderate nuclear pyknosis
Separation of Basement Membrane [5]: did not show separation of the basement membrane
Pyknosis or Karyopyknosis [6]: No
Separation of Basement Membrane [6]: No
Cell Nuclei [7]: epidermal cells were normal and showed preserved cytoplasmic and nuclear structure
Separation of Basement Membrane [7]: did not show separation of the basement membrane
Cell Nuclei [8]: intense presence of altered epidermal cells
Pyknosis or Karyopyknosis [8]: intense nuclear pyknosis
Separation of Basement Membrane [8]: intense separation of the basement membrane
Cell Nuclei [9]: epidermal cells were normal and showed preserved cytoplasmic and nuclear structure
Pyknosis or Karyopyknosis [9]: No
Separation of Basement Membrane [9]: intense separation of the basement membrane
Effect on cellular structure in hoof tissue (overall conclusion) (summary of the explant study): provides a protective and/or therapeutic effect on cellular structure in hoof tissue
